# Counter-ions that a name gives are not always drawn.
# Tested on: CGAS
# Assay: CGAS whole blood cytokine release assay (384-well, BacMam stimulation, IP-10 by cytometric bead array)
# Type: cell-based
# Settings: Homo sapiens, 6 h; read-out: hWB pXC50 (converted)
# Experimental: Blood collection: Blood was collected in a tube containing 10% Sodium Heparin (5 ml/45 ml blood final).
# Protocol for CGAS Whole Blood Cytokine Release Assay: Compounds serial diluted at 1:3 were provided at 150 nL per well, in a 384 well polypropylene microplate (cat. 781280; Greiner Bio-One, Frickenhausen, Germany). 5 μL of PBS/20% Null BacMam was dispensed to all wells except for column 18 on a Multidrop Combi (Thermo Scientific, Waltham, MA). 5 uL of PBS was dispensed into column 18. The Bravo (Agilent, Santa Clara, CA) was used to transfer 45 uL of donor derived blood into the compound plates. The Bravo protocol mixed the blood and compound/PBS 5 times. The plates were incubated at 37° C., 5% CO2, for 6 hours. At the 6 hour mark the plates were removed and centrifuged for 10 minutes at 3000 RPM. 3 uL of supernatant was transferred from the plate to a 384 well NBS microplate (cat. 4513; Corning Life Sciences, Corning, NY). These plates were sealed with adhesive foil and stored in a −80 freezer until ready for analysis.
# For cytokine detection, Human IP-10 BD cytometric bead array (CBA) beads (BD Biosciences, Franklin Lakes, NJ) were used. Capture bead solution was prepared by performing a 1:50 dilution of the IP-10 capture bead stock solution in BD diluent for serum/plasma (cat. 51-9003991 BD Biosciences, Franklin Lakes, NJ). 2 μL of this solution was added per well to the assay microplates which were then sealed with adhesive foil and incubated at room temperature for 2 h in the dark. Detection reagent was further prepared by performing a 1:50 dilution of the detection reagent stock solution. 2 μL of detection reagent was added per well and microplates were sealed with adhesive foil and incubated at room temperature in the dark for 1 h. After the 1 h incubation 3 uL of BD CBA wash buffer was added per well of the microplates. Data were acquired on an iQue Screener flow cytometer. The iQue used fluorescence detection to quantify the inhibition of IP-10 present in the sample wells. A sip time of 1 second per sample was used. The blue laser with excitation of 488 nm and emission filters 585/40 nm were used to capture the mean and median of IP-10 with the detector in logarithmic mode (FL2-H).
# All data analysis was carried out in IDBS ActivityBase XE.
row,SMILES,IC50 [nM]
1,"OCc1ccn2c(-c3cnc[nH]3)c(-c3nc(C(F)(F)F)n[nH]3)nc2n1 [Example 9, [3-(1H-imidazol-5-yl)-2-[3-(trifluoromethyl)-1H-1,2,4-triazol-5-yl]imidazo[1,2-a]pyrimidin-7-yl]methanol, 0.3 trifluoroacetic acid salt]",100
2,"FC(F)(F)COc1ccn2c(-c3cnc[nH]3)c(-c3nc(C(F)(F)F)n[nH]3)nc2n1 [Example 12, 5-[3-(1H-imidazol-5-yl)-7-(2,2,2-trifluoroethoxy)imidazo[1,2-a]pyrimidin-2-yl]-3-(trifluoromethyl)-1H-1,2,4-triazole]",6310
3,"FC(F)(F)c1n[nH]c(-c2nc3ncc(CC4CCCC4)cn3c2-c2cnc[nH]2)n1 [Example 17, 5-[6-(cyclopentylmethyl)-3-(1H-imidazol-5-yl)imidazo[1,2-a]pyrimidin-2-yl]-3-(trifluoromethyl)-1H-1,2,4-triazole, trifluoroacetic acid salt]",1260
4,"CNCCOC(=O)OCn1cnc(-c2c(-c3nc(C(F)(F)F)n[nH]3)nc3ncccn23)c1 [Example 26, 2-(methylamino)ethyl (4-{2-[3-(trifluoromethyl)-1H-1,2,4-triazol-5-yl]imidazo[1,2-a]pyrimidin-3-yl}-1H-imidazol-1-yl)methyl carbonate, 2 trifluoroacetic acid salt]",39.8
5,"O=C(O)CCOC(=O)OCn1cnc(-c2c(-c3nc(C(F)(F)F)n[nH]3)nc3ncccn23)c1 [Example 32, 3-({[(4-{2-[3-(trifluoromethyl)-1H-1,2,4-triazol-5-yl]imidazo[1,2-a]pyrimidin-3-yl}-1H-imidazol-1-yl)methoxy]carbonyl}oxy)propanoic acid, 0.5 trifluoroacetic acid salt]",3160
6,"CC(=O)n1cnc(-c2c(-c3nc(C(F)(F)F)n[nH]3)nc3ncccn23)c1 [Example 62, 1-(4-{2-[3-(trifluoromethyl)-1H-1,2,4-triazol-5-yl]imidazo[1,2-a]pyrimidin-3-yl}-1H-imidazol-1-yl)ethan-1-one]",126
7,"FC(F)(F)c1cnc2nc(-c3nc(C(F)(F)F)n[nH]3)c(-c3cnc[nH]3)n2c1 [Example 64, 5-[3-(1H-imidazol-5-yl)-6-(trifluoromethyl)imidazo[1,2-a]pyrimidin-2-yl]-3-(trifluoromethyl)-1H-1,2,4-triazole]",398
8,"FC(F)(F)c1n[nH]c(-c2nc3ncc(COC4CCOCC4)cn3c2-c2c[nH]cn2)n1 [Example 65, 5-[3-(1H-imidazol-4-yl)-6-[(oxan-4-yloxy)methyl]imidazo[1,2-a]pyrimidin-2-yl]-3-(trifluoromethyl)-1H-1,2,4-triazole]",501
9,"CS(=O)(=O)N1Cc2cn3c(-c4cnc[nH]4)c(-c4nc(C(F)(F)F)n[nH]4)nc3nc2C1 [Example 67, 12-(1H-imidazol-5-yl)-5-methanesulfonyl-11-[3-(trifluoromethyl)-1H-1,2,4-triazol-5-yl]-1,5,8,10-tetraazatricyclo[7.3.0.0^3,^7]dodeca-2,7,9,11-tetraene]",2510
10,"CC(=O)N(C)Cc1cnc2nc(-c3nc(C(F)(F)F)n[nH]3)c(-c3cnc[nH]3)n2c1 [Example 76, N-{[3-(1H-imidazol-5-yl)-2-[3-(trifluoromethyl)-1H-1,2,4-triazol-5-yl]imidazo[1,2-a]pyrimidin-6-yl]methyl}-N-methylacetamide]",5010
11,"CCOCc1cnc2nc(-c3nc(C(F)F)n[nH]3)c(-c3cnc[nH]3)n2c1 [Example 85, 3-(difluoromethyl)-5-[6-(ethoxymethyl)-3-(1H-imidazol-5-yl)imidazo[1,2-a]pyrimidin-2-yl]-1H-1,2,4-triazole]",50.1
12,"FC(F)(F)c1ccn2c(-c3cnc[nH]3)c(-c3nc(Br)n[nH]3)nc2n1 [Example 91, 3-bromo-5-[3-(1H-imidazol-5-yl)-7-(trifluoromethyl)imidazo[1,2-a]pyrimidin-2-yl]-1H-1,2,4-triazole]",1000
13,"FC(F)(F)c1ccn2c(-c3cn[nH]c3)c(-c3nc(C(F)(F)F)n[nH]3)nc2n1 [Example 93, 5-[3-(1H-pyrazol-4-yl)-7-(trifluoromethyl)imidazo[1,2-a]pyrimidin-2-yl]-3-(trifluoromethyl)-1H-1,2,4-triazole]",2510
14,"COC(=O)c1ccn2c(-c3c[nH]cn3)c(-c3nc(C(F)(F)F)n[nH]3)nc2n1 [Example 100, methyl 3-(1H-imidazol-4-yl)-2-[3-(trifluoromethyl)-1H-1,2,4-triazol-5-yl]imidazo[1,2-a]pyrimidine-7-carboxylate]",398
15,"FC(F)COCc1cnc2nc(-c3nc(C(F)(F)F)n[nH]3)c(-c3cnc[nH]3)n2c1 [Example 101, 5-{6-[(2,2-difluoroethoxy)methyl]-3-(1H-imidazol-5-yl)imidazo[1,2-a]pyrimidin-2-yl}-3-(trifluoromethyl)-1H-1,2,4-triazole]",126
16,"CCN1Cc2cn3c(-c4cnc[nH]4)c(-c4nc(C(F)(F)F)n[nH]4)nc3nc2C(F)(F)C1 [Example 108, 11-ethyl-13,13-difluoro-6-(1H-imidazol-5-yl)-5-[3-(trifluoromethyl)-1H-1,2,4-triazol-5-yl]-2,4,7,11-tetraazatricyclo[7.4.0.0^3,^7]trideca-1,3,5,8-tetraene]",631
17,"FC(F)Oc1n[nH]c(-c2nc3ncccn3c2-c2cnc[nH]2)n1 [Example 113, 3-(difluoromethoxy)-5-[3-(1H-imidazol-5-yl)imidazo[1,2-a]pyrimidin-2-yl]-1H-1,2,4-triazole]",1000

# The remaining lines, values ahead:
row,IC50 [nM],SMILES
1,1580,"CCOCc1cn2c(-c3cnc[nH]3)c(-c3nc(C(F)(F)F)n[nH]3)nc2nc1C(F)(F)F [Example 115, 5-[6-(ethoxymethyl)-3-(1H-imidazol-5-yl)-7-(trifluoromethyl)imidazo[1,2-a]pyrimidin-2-yl]-3-(trifluoromethyl)-1H-1,2,4-triazole]"
2,631,"CC1(C)Cc2nc3nc(-c4nc(C(F)(F)F)n[nH]4)c(-c4c[nH]cn4)n3cc2CO1 [Example 137, 6-(1H-imidazol-4-yl)-12,12-dimethyl-5-[3-(trifluoromethyl)-1H-1,2,4-triazol-5-yl]-11-oxa-2,4,7-triazatricyclo[7.4.0.0^3,^7]trideca-1,3,5,8-tetraene]"
3,794,"FC(F)(F)c1n[nH]c(-c2nc3ncc(C4(C(F)(F)F)CC4)cn3c2-c2cnc[nH]2)n1 [Example 144, 5-[3-(1H-imidazol-5-yl)-6-[1-(trifluoromethyl)cyclopropyl]imidazo[1,2-a]pyrimidin-2-yl]-3-(trifluoromethyl)-1H-1,2,4-triazole]"
4,5010,"O=C(COCc1cnc2nc(-c3nc(C(F)(F)F)n[nH]3)c(-c3c[nH]cn3)n2c1)N1CCCC1 [Example 147, 2-{[3-(1H-imidazol-4-yl)-2-[3-(trifluoromethyl)-1H-1,2,4-triazol-5-yl]imidazo[1,2-a]pyrimidin-6-yl]methoxy}-1-(pyrrolidin-1-yl)ethan-1-one]"
5,3980,"Cc1ccn(CCOCc2cnc3nc(-c4nc(C(F)(F)F)n[nH]4)c(-c4c[nH]cn4)n3c2)n1 [Example 148, 5-[3-(1H-imidazol-4-yl)-6-{[2-(3-methyl-1H-pyrazol-1-yl)ethoxy]methyl}imidazo[1,2-a]pyrimidin-2-yl]-3-(trifluoromethyl)-1H-1,2,4-triazole]"
6,3980,"FC(F)(F)c1n[nH]c(-c2nc3ncc(COCCn4cc(Cl)cn4)cn3c2-c2c[nH]cn2)n1 [Example 151, 5-(6-{[2-(4-chloro-1H-pyrazol-1-yl)ethoxy]methyl}-3-(1H-imidazol-4-yl)imidazo[1,2-a]pyrimidin-2-yl)-3-(trifluoromethyl)-1H-1,2,4-triazole]"
7,2510,"O=C(COCc1cnc2nc(-c3nc(C(F)(F)F)n[nH]3)c(-c3c[nH]cn3)n2c1)N1CCCCC1 [Example 152, 2-{[3-(1H-imidazol-4-yl)-2-[3-(trifluoromethyl)-1H-1,2,4-triazol-5-yl]imidazo[1,2-a]pyrimidin-6-yl]methoxy}-1-(piperidin-1-yl)ethan-1-one]"
8,794,"CCCOCCOCc1cnc2nc(-c3nc(C(F)(F)F)n[nH]3)c(-c3c[nH]cn3)n2c1 [Example 153, 5-[3-(1H-imidazol-4-yl)-6-[(2-propoxyethoxy)methyl]imidazo[1,2-a]pyrimidin-2-yl]-3-(trifluoromethyl)-1H-1,2,4-triazole]"
9,200,"Fc1cnc2nc(-c3nc(Br)n[nH]3)c(-c3c[nH]cn3)n2c1 [Example 159, 3-bromo-5-[6-fluoro-3-(1H-imidazol-4-yl)imidazo[1,2-a]pyrimidin-2-yl]-1H-1,2,4-triazole]"
10,6310,"OCC1CN(Cc2ccn3c(-c4c[nH]cn4)c(-c4nc(C(F)(F)F)n[nH]4)nc3n2)C1 [Example 164, (1-{[3-(1H-imidazol-4-yl)-2-[3-(trifluoromethyl)-1H-1,2,4-triazol-5-yl]imidazo[1,2-a]pyrimidin-7-yl]methyl}azetidin-3-yl)methanol]"
